The record followed here is patent publication US11446287B2, “Compounds and methods for EP300 or CBP modulation and indications therefor” (Opna Immuno-Oncology SA, priority 2019, dated 2022).

This assay concerns the target T1, Recombinant human BRD4 containing dual bromodomains (BRD4-BD12 (1-477)) (Homo sapiens, UniProt O60885).
T1 construct: Recombinant human BRD4 containing dual bromodomains (BRD4-BD12 (1-477)); made in house; host or cells: E. coli BL21-CodonPlus (DE3), modified pET vector
Description: BRD4 Alphascreen binding assay. An outline of the steps:
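His-tagged human BRD4 tandem bromodomains (1-477, E. coli) incubated 1 h at room temperature with biotinylated tetra-acetylated H4 (1-21) peptide and compound in HEPES pH 7.5 buffer with 2 mM DTT. AlphaScreen signal read 30 min after adding beads (7.5 μg/ml); IC50 from four-parameter fit after normalization to controls.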
For orientation: In Alpha technology, singlet oxygen from a donor bead excites a nearby acceptor bead.

Molecules are shown by their SMILES.

Usually IC50 stands for the concentration that gives 50% inhibition. Regarding `Cc1noc(C)c1-c1cnc2c(c1)c(-c1ccc(C(=O)O)cc1OC(F)(F)F)cn2-c1ncccc1C#N` [P-0215, 4-(1-(3-cyanopyridin-2-yl)-5-(3,5-dimethylisoxazol-4-yl)-1H-pyrrolo[2,3-b]pyridin-3-yl)-3-(trifluoromethoxy)benzoic acid], the 50% inhibitory concentration (IC50) lay in the range of 1 to 8 µM.

`Cc1noc(C)c1-c1cnc2c(c1)c(-c1ccc(C(=O)O)cc1OC(F)(F)F)cn2-c1ncccc1C#CC1CC1` [P-0216, 4-(1-(3-(cyclopropylethynyl)pyridin-2-yl)-5-(3,5-dimethylisoxazol-4-yl)-1H-pyrrolo[2,3-b]pyridin-3-yl)-3-(trifluoromethoxy)benzoic acid]: the 50% inhibitory concentration (IC50) fell in the range of 8 to 1000 µM.

In the case of `CCOc1cc(C(=O)O)cc(OCC)c1-n1cc(-c2ccc(C#N)cc2F)c2ncc(-c3c(C)noc3C)cc21` [P-0217, 4-(3-(4-cyano-2-fluorophenyl)-6-(3,5-dimethylisoxazol-4-yl)-1H-pyrrolo[3,2-b]pyridin-1-yl)-3,5-diethoxybenzoic acid], the IC50 fell in the range of 1 to 8 µM.

Consider `CCOc1cc(C(=O)O)cc(OCC)c1-n1cc(-c2ccc(C(=O)NC3CC3)cc2)c2ncc(-c3c(C)noc3C)cc21` [P-0218, 4-(3-(4-(cyclopropylcarbamoyl)phenyl)-6-(3,5-dimethylisoxazol-4-yl)-1H-pyrrolo[3,2-b]pyridin-1-yl)-3,5-diethoxybenzoic acid], for which the IC50 was 1 to 8 µM.

Consider `COC(=O)c1cc(OC)c(-n2cc(-c3ccccc3)c3ncc(-c4c(C)noc4C)cc32)c(OC)c1` [P-0219, methyl 4-(6-(3,5-dimethylisoxazol-4-yl)-3-phenyl-1H-pyrrolo[3,2-b]pyridin-1-yl)-3,5-dimethoxybenzoate], for which the concentration for half-maximal inhibition (IC50) lay in the range of 1 to 8 µM.

Consider `COc1cc(C(=O)O)cc(OC)c1-n1cc(-c2ccccc2)c2ncc(-c3c(C)noc3C)cc21` [P-0220, 4-(6-(3,5-dimethylisoxazol-4-yl)-3-phenyl-1H-pyrrolo[3,2-b]pyridin-1-yl)-3,5-dimethoxybenzoic acid], for which the concentration for half-maximal inhibition (IC50) was 0.0001 to 1 µM.

With `COc1cccc(OC)c1-n1cc(-c2ccccc2)c2ncc(-c3c(C)noc3C)cc21` [P-0221, 4-(1-(2,6-dimethoxyphenyl)-3-phenyl-1H-pyrrolo[3,2-b]pyridin-6-yl)-3,5-dimethylisoxazole], the IC50 was in the range of 8 to 1000 µM.

As for `CCOc1cc(C(=O)O)cc(OCC)c1-n1cc(-c2ccnc(F)c2)c2ncc(-c3c(C)noc3C)cc21` [P-0222, 4-(6-(3,5-dimethylisoxazol-4-yl)-3-(2-fluoropyridin-4-yl)-1H-pyrrolo[3,2-b]pyridin-1-yl)-3,5-diethoxybenzoic acid], the 50% inhibitory concentration (IC50) is 1 to 8 µM.

Take `Cc1noc(C)c1-c1cnc2c(c1)c(-c1ccc(C(=O)O)cc1OC(F)(F)F)cn2-c1ccccc1F` [P-0223, 4-(5-(3,5-dimethylisoxazol-4-yl)-1-(2-fluorophenyl)-1H-pyrrolo[2,3-b]pyridin-3-yl)-3-(trifluoromethoxy)benzoic acid]: the IC50 was in the range of 1 to 8 µM.

In the case of `CCOc1cccc(Cl)c1-n1cc(-c2ccccc2)c2ncc(-c3c(C)noc3C)cc21` [P-0224, 4-(1-(2-chloro-6-ethoxyphenyl)-3-phenyl-1H-pyrrolo[3,2-b]pyridin-6-yl)-3,5-dimethylisoxazole], the half-inhibitory concentration (IC50) is 1 to 8 µM.

Regarding `CCOc1ccc(C(=O)O)cc1-n1cc(-c2ccccc2)c2ncc(-c3c(C)noc3C)cc21` [P-0225, 3-(6-(3,5-dimethylisoxazol-4-yl)-3-phenyl-1H-pyrrolo[3,2-b]pyridin-1-yl)-4-ethoxybenzoic acid], the IC50 lay in the range of 1 to 8 µM.

As to `Cc1noc(C)c1-c1cnc2c(c1)c(-c1ccc(C(=O)O)cc1OC(F)(F)F)cn2C1CCOCC1` [P-0226, 4-(5-(3,5-dimethylisoxazol-4-yl)-1-(tetrahydro-2H-pyran-4-yl)-1H-pyrrolo[2,3-b]pyridin-3-yl)-3-(trifluoromethoxy)benzoic acid], the concentration for half-maximal inhibition (IC50) is 1 to 8 µM.

`Cc1noc(C)c1-c1cnc2c(c1)c(-c1ccc(C(=O)O)cc1OC(F)(F)F)cn2C1CCC(F)(F)CC1` [P-0227, 4-(1-(4,4-difluorocyclohexyl)-5-(3,5-dimethylisoxazol-4-yl)-1H-pyrrolo[2,3-b]pyridin-3-yl)-3-(trifluoromethoxy)benzoic acid]: the IC50 was in the range of 1 to 8 µM.
